In brackets after ≈: the same amount, converted by molar mass. Entries after “also recorded” stand apart in the source; their conditions may differ.
Tests used:
[1] = system: Bacillus subtilis No. 10707; experiment: Activity (unit/mg) of isolated preparations; paper disk method using an agar plate; type: cell-based
Procedure: (§1) After the completion of fermentation, the culture liquor is adjusted to a pH of 2.0 with 12N sulfuric acid and stirred for 30 minutes. Then, about 10 kg of a filter aid, Radiolite No. 600 (product of Showa Kagaku Kogyo Co., Ltd., Japan) is added thereto and the microbial cells are removed by filtration. The filtrate is adjusted to a pH of 8.0 with 6N sodium hydroxide and passed through a column packed with about 50 l of a cation exchange resin, Amberlite IRC-50 (ammonia form). The active substance is adsorbed on the resin and the eluate is discarded. After washing the resin with water, the active substance is eluted out with 1N aqueous ammonia.
Active fractions are combined and concentrated in vacuo to about 5 l. The concentrate is then adjusted to a pH of 8.0 with 6N sulfuric acid and passed through a column packed with 1 l of an anion exchange resin, Dowex 1×2 (OH^- form). The column is washed with about 5 l of water and the effluent and the washings containing active substance are combined and are concentrated to 1/15 by volume. […] The resultant precipitate is removed by filtration and the filtrate is concentrated to 500 ml. The concentrate is adjusted to a pH of 4.5 with 6N sulfuric acid and 2.5 l of methanol is added thereto. […] The precipitate is separated by filtration and washed with methanol.
as §1, with “of” for “of a filter aid,”, “(trade name)” for “(product of Showa Kagaku Kogyo Co., Ltd., Japan)”, “The” for “The active substance is adsorbed on the resin and the”

[2] = system: Pseudomonas aeruginosa KY 8515; experiment: Minimum inhibitory concentration by agar dilution method; type: cell-based; details: KY8515, clinical isolate, Table 7
Description: (§2) Minimum inhibitory concentration
(§3) (γ/ml : by agar dilution method)

[3] = system: Pseudomonas aeruginosa KY 8511; experiment: as above; type: cell-based; details: KY8511, clinical isolate, Table 7
Description: as §2, §3

[4] = system: Pseudomonas aeruginosa KY 4276; experiment: as above; type: cell-based; details: KY4276, clinical isolate, Table 7
Description: as §2, §3

[5] = system: Pseudomonas aeruginosa KY 8516; experiment: as above; type: cell-based; details: Pseudomonas aeruginosa, KY8516; agar dilution; clinical isolate; Table 7
Description: as §2, §3

[6] = system: Pseudomonas aeruginosa KY 8512; experiment: as above; type: cell-based; details: KY8512, clinical isolate, Table 7
Description: as §2, §3

[7] = system: Pseudomonas aeruginosa KY 8510; experiment: as above; type: cell-based; details: Pseudomonas aeruginosa, KY8510; agar dilution; clinical isolate; Table 7
Description: as §2, §3

[8] = system: Pseudomonas aeruginosa KY 8520; experiment: as above; type: cell-based; details: KY8520, clinical isolate, Table 7
Description: as §2, §3

[9] = system: Pseudomonas aeruginosa KY 8514; experiment: as above; type: cell-based; details: KY8514, clinical isolate, Table 7
Description: as §2, §3

[10] = system: Pseudomonas aeruginosa KY 8562; experiment: as above; type: cell-based; details: KY8562, clinical isolate, Table 7
Description: as §2, §3

[11] = system: Proteus vulgaris ATCC 6897; experiment: as above; type: cell-based; details: ATCC6897, read-out: Minimum inhibitory concentration
Description: Antibacterial spectra of XK-62-2 by agar
(§4) The comparative in vitro activities of these antibiotics against various microorganisms of the genus Proteus are shown in the following Table 6.
as §2, §3

[12] = system: Proteus mirabilis Finland 9; experiment: as above; type: cell-based; details: FINLAND9, read-out: Minimum inhibitory concentration
Description: as §4, §2, §3

[13] = system: Proteus mirabilis No. 825; experiment: as above; type: cell-based; details: NO.825, read-out: Minimum inhibitory concentration
Description: as §4, §2, §3

Proteus morganii Jenkins = experiment: as above; type: cell-based; details: Morganella morganii, read-out: Minimum inhibitory concentration
Description: as §4, §2, §3

Proteus rettgeri Booth = experiment: as above; type: cell-based; details: Providencia rettgeri, read-out: Minimum inhibitory concentration
Description: as §4, §2, §3

[14] = system: Proteus rettgeri Hambrook; experiment: as above; type: cell-based; details: Providencia rettgeri, read-out: Minimum inhibitory concentration
Description: as §4, §2, §3

Proteus mirabilis No. 39 = experiment: as above; type: cell-based; details: NO.39, read-out: Minimum inhibitory concentration
Description: as §4, §2, §3

[15] = system: Proteus vulgaris Abbott JJ; experiment: as above; type: cell-based; details: read-out: Minimum inhibitory concentration
Description: as §4, §2, §3

[16] = system: specific enzyme system which inactivates gentamicin C1a or kanamycin by acetylating; type: biochemical, Pseudomonas aeruginosa; details: acetylating enzyme of KY 8510 and 8516 strains
Solubility = type: physicochemical
[17] = Example 2, free base, Mm-628 ATCC 21827
[18] = Example 6, free base, Micromonospora purpurea ATCC 15835
[19] = Example 7, free base, Micromonospora echinospora ATCC 15837 NRRL 2985
[20] = Example 7, free base, Micromonospora echinospora var. ferruginea NRRL 2995
[21] = Example 7, free base, Micromonospora echinospora var. pallida NRRL 2996

Structure (SMILES)	Activity [1, 17]	Activity [1, 18]	Activity [1, 19]	Activity [1, 20]	Activity [1, 21]	MIC [2]	MIC [3]	MIC [4]	MIC [5]	MIC [6]	MIC [7]	MIC [8]	MIC [9]	MIC [10]	MIC [11]	MIC [12]	MIC [13]	MIC (Proteus morganii Jenkins)	MIC (Proteus rettgeri Booth)	MIC [14]	other results
CN[C@@H]1[C@@H](O)[C@@H](O[C@@H]2[C@@H](O)[C@H](O[C@H]3O[C@H]([C@@H](C)NC)CC[C@H]3N)[C@@H](N)C[C@H]2N)OC[C@]1(C)O [gentamicin C1, reference compound]	880 unit/mg	821 unit/mg	906 unit/mg	830 unit/mg	940 unit/mg																
CN[C@@H]1[C@@H](O)[C@@H](O[C@@H]2[C@@H](O)[C@H](O[C@H]3O[C@H]([C@@H](C)N)CC[C@H]3N)[C@@H](N)C[C@H]2N)OC[C@]1(C)O [gentamicin C2, reference compound]	925 unit/mg	880 unit/mg	845 unit/mg	853 unit/mg	859 unit/mg																
NC[C@H]1O[C@H](O[C@H]2[C@H](O)[C@@H](O[C@H]3O[C@H](CO)[C@@H](O)[C@H](N)[C@H]3O)[C@H](N)C[C@@H]2N)[C@H](O)[C@@H](O)[C@@H]1O [kanamycin]						416 µg/mL (≈ 859 µM)	13 µg/mL (≈ 26.8 µM)	1.63 µg/mL (≈ 3.36 µM)	26 µg/mL (≈ 53.7 µM)	3.3 µg/mL (≈ 6.81 µM)	13 µg/mL (≈ 26.8 µM)	104 µg/mL (≈ 215 µM)	208 µg/mL (≈ 429 µM)	167 µg/mL (≈ 345 µM)	0.34 µg/mL (≈ 0.702 µM)	0.04 µg/mL (≈ 0.0826 µM)	0.04 µg/mL (≈ 0.0826 µM)	0.16 µg/mL (≈ 0.33 µM)	0.08 µg/mL (≈ 0.165 µM)	0.08 µg/mL (≈ 0.165 µM)	MIC (Proteus mirabilis No. 39): 0.33 µg/mL (≈ 0.681 µM); MIC [15]: 0.16 µg/mL (≈ 0.33 µM); Inactivation by acetylation (6'-NH2) [16]: inactivates
[H]/N=C(/N)N[C@H]1[C@H](O)[C@@H](O)[C@H](O[C@@H]2O[C@@H](C)[C@](O)(C=O)[C@H]2O[C@@H]2O[C@@H](CO)[C@H](O)[C@@H](O)[C@@H]2NC)[C@@H](N/C(N)=N\[H])[C@@H]1O [streptomycin]						624 µg/mL (≈ 1070 µM)	> 2500 µg/mL	2.6 µg/mL (≈ 4.47 µM)	0.65 µg/mL (≈ 1.12 µM)	42 µg/mL (≈ 72.2 µM)	0.65 µg/mL (≈ 1.12 µM)	5.2 µg/mL (≈ 8.94 µM)	156 µg/mL (≈ 268 µM)	156 µg/mL (≈ 268 µM)	> 40 µg/mL	> 40 µg/mL	> 40 µg/mL	> 40 µg/mL	> 40 µg/mL	> 40 µg/mL	MIC (Proteus mirabilis No. 39): > 40 µg/mL; MIC [15]: > 40 µg/mL
CNC[C@@H]1CC[C@@H](N)[C@@H](O[C@H]2[C@H](O)[C@@H](O[C@H]3OC[C@](C)(O)[C@H](NC)[C@H]3O)[C@H](N)C[C@@H]2N)O1 [sulfate of XK-62-2]																					Solubility in acetone (Solubility; acetone): insoluble; Solubility in methanol (Solubility; methanol): poorly soluble; also recorded: insoluble; Solubility in water (Solubility; water): very soluble; Activity ([1]; Example 4, sulfate): 792 unit/mg

Reference: patent US4045298A, “Antibiotic XK-62-2 and process for production thereof” (priority 1972, dated 1977)
